Activity calls are given as the source filed them. No cut-off for these calls is given here.
Tests used:
[1] = Induction of beta cells proliferation in 5 days post fertilize Tg(-1.2ins:H2BmCherry) zebra fish larvae assessed as beta cell number at 10 uM after 24 hrs by confocal microscopic method (reference value: 35 +/- 1); format: functional, Danio rerio, Pancreatic beta cell
[2] = system: INS1(832/13); assay: Induction of cell proliferation in rat INS-1 832/13 cells after 24 hrs by CCK8 assay; format: functional, cell-based
[3] = system: Pancreatic beta cell; assay: Induction of beta cells proliferation in 6 days post fertilize Tg(-1.2ins:H2BmCherry)/TgBAC(neurod1:eGFP) zebra fish larvae at 10 uM after 24 hrs by confocal microscopic method; format: functional, tissue-based; settings: Danio rerio
[4] = system: Pancreatic beta cell; assay: Induction of beta cells proliferation in 6 days post fertilize Tg(-1.2ins:H2BmCherry)/Tg(gcga:eGFP) zebra fish larvae at 10 uM after 24 hrs by confocal microscopic method; format: functional; settings: Danio rerio
[5] = Induction of beta cells proliferation in 6 days post fertilize Tg(-1.2ins:H2BmCherry)Tg(ins:mAG-zGeminin(1/100)) zebra fish larvae assessed as number of replicated beta cells at 10 uM after 24 hrs by confocal microscopic method (reference value: 1.7 +/- 0.5); format: functional, Danio rerio, Pancreatic beta cell
[6] = system: Pancreatic beta cell; assay: Induction of beta cells proliferation in 6 days post fertilize Tg(-1.2ins:H2BmCherry)Tg(ins:mAG-zGeminin(1/100)) zebra fish larvae assessed as increase in total beta cells at 5 to 10 uM after 24 hrs by confocal microscopic method; format: functional; settings: Danio rerio, dose microM 5-10, time 24.0 hrs
[7] = system: Pancreatic beta cell; assay: Induction of beta cells proliferation in 6 days post fertilize Tg(-1.2ins:H2BmCherry)Tg(ins:mAG-zGeminin(1/100)) zebra fish larvae assessed as increase in beta cell proliferation at 5 to 10 uM after 24 hrs by confocal microscopic method; format: functional; settings: Danio rerio, dose microM 5-10, time 24.0 hrs
[8] = system: Pancreatic beta cell; assay: Induction of beta cells proliferation in 6 days post fertilize Tg(-1.2ins:H2BmCherry)Tg(ins:mAG-zGeminin(1/100)) zebra fish larvae assessed as increase in total beta cells at 25 to 50 uM after 24 hrs by confocal microscopic method; format: functional, cell-based; settings: Danio rerio, dose microM 25-50, time 24.0 hrs
[9] = system: Pancreatic beta cell; assay: Induction of beta cells proliferation in 6 days post fertilize Tg(-1.2ins:H2BmCherry)Tg(ins:mAG-zGeminin(1/100)) zebra fish larvae assessed as increase in beta cell proliferation at 25 to 50 uM after 24 hrs by confocal microscopic method; format: functional; settings: Danio rerio, dose microM 25-50, time 24.0 hrs
[10] = Toxicity in 6 days post fertilize Tg(-1.2ins:H2BmCherry)Tg(ins:mAG-zGeminin(1/100)) zebra fish beta cells at 50 uM after 24 hrs by confocal microscopic method; format: tissue-based, Danio rerio; settings: zebrafish, pancreatic beta cell
[11] = system: INS1(832/13); assay: Induction of cell cycle progression at G1/S transition in rat INS-1 832/13 cells assessed as increase in Cyclin E mRNA expression at 10 uM after 24 hs by qRT-PCR analysis; format: functional, cell-based; settings: time 24.0 hrs
[12] = system: INS1(832/13); assay: Induction of cell cycle progression at G1/S transition in rat INS-1 832/13 cells assessed as increase in Cdk 2 mRNA expression at 10 uM after 24 hs by qRT-PCR analysis; format: functional, cell-based; settings: time 24.0 hrs
[13] = system: INS1(832/13); assay: Induction of cell cycle progression at G1/S transition in rat INS-1 832/13 cells assessed as increase in Cdk 4 mRNA expression at 10 uM after 24 hs by qRT-PCR analysis; format: functional, cell-based; settings: time 24.0 hrs
[14] = system: INS1(832/13); assay: Induction of cell cycle progression at G1/S transition in rat INS-1 832/13 cells assessed as decrease in p21 mRNA expression at 10 uM after 24 hs by qRT-PCR analysis; format: functional, cell-based; settings: time 24.0 hrs
[15] = system: INS1(832/13); assay: Induction of cell cycle progression at G1/S transition in rat INS-1 832/13 cells assessed as decrease in p27 mRNA expression at 10 uM after 24 hs by qRT-PCR analysis; format: functional, cell-based; settings: time 24.0 hrs
[16] = system: Pancreatic beta cell; assay: Induction of beta cells proliferation in 6 days post fertilize Tg(-1.2ins:H2BmCherry)Tg(ins:mAG-zGeminin(1/100)) zebra fish larvae assessed as increase in total beta cells after 24 hrs by confocal microscopic method; format: functional; settings: Danio rerio, dose microM 5-25, time 24.0 hrs
[17] = system: Pancreatic beta cell; assay: Induction of beta cells proliferation in 6 days post fertilize Tg(-1.2ins:H2BmCherry)Tg(ins:mAG-zGeminin(1/100)) zebra fish larvae assessed as increase in beta cell proliferation after 24 hrs by confocal microscopic method; format: functional; settings: Danio rerio, dose microM 5-25, time 24.0 hrs
[18] = Induction of beta cells proliferation in 6 days post fertilize Tg(-1.2ins:H2BmCherry)Tg(ins:mAG-zGeminin(1/100)) zebra fish larvae assessed as increase in beta cell proliferation at 25 uM after 24 hrs by confocal microscopic method relative to control; format: functional, Danio rerio, Pancreatic beta cell
[19] = system: Pancreatic beta cell; assay: Induction of beta cells proliferation in 6 days post fertilize Tg(-1.2ins:H2BmCherry)Tg(ins:mAG-zGeminin(1/100)) zebra fish larvae assessed as increase in beta cells at 50 uM after 24 hrs by confocal microscopic method relative to control; format: functional; settings: Danio rerio

Q: For `CC(C)=CCc1c(C)cc2oc3cccc(C4O[C@H](C)[C@@H](C)O4)c3c(=O)c2c1O`, which Activity [1] is on record?
A: Its Activity is 39.

Q: With `C=CC(C)(C)c1cc(CC=C(C)C)c(O)c2c(=O)c3c(CO)cc(C)cc3oc12` as the molecule, how does the Activity [2] read?
A: The Activity was “Active”.

Q: And the Activity [1]?
A: Its Activity is 40.

Q: And the Activity [3]?
A: The Activity was “Active”.

Q: And the Activity [4]?
A: The Activity was “Active”.

Q: And the Activity [5]?
A: The Activity was 4.3.

Q: And the Activity [6]?
A: Its Activity is “Dose-dependent effect”.

Q: And the Activity [7]?
A: Its Activity is “Dose-dependent effect”.

Q: What about the Activity [8] of the same molecule?
A: Its Activity is “inactive”.

Q: And the Activity [9]?
A: The Activity was “inactive”.

Q: And the Activity [10]?
A: The Activity was “Toxic”.

Q: What about the Activity [11] of the same molecule?
A: Its Activity is “Active”.

Q: What about the Activity [12] of the same molecule?
A: The Activity was “Active”.

Q: And the Activity [13]?
A: The Activity was “Active”.

Q: What about the Activity [14] of the same molecule?
A: The Activity was “Active”.

Q: What about the Activity [15] of the same molecule?
A: The Activity was “Active”.

Q: Which results are given for `C=CC(C)(C)c1c(C)c(CC=C(C)C)c(O)c2c(=O)c3c(CO)cccc3oc12`?
A: Activity [2]: Active; Activity [1]: 40; Activity [3]: Active; Activity [4]: Active; Activity [5]: 3.6; Activity [16]: Dose-dependent effect; Activity [17]: Dose-dependent effect; Activity [18]: 10%; Activity [19]: inactive; Activity [10]: Toxic; Activity [11]: Active; Activity [12]: Active; Activity [13]: Active; Activity [14]: Active; Activity [15]: Active

Q: With `C[C@]12C=CC(=O)C=C1CC[C@@H]1[C@@H]2[C@@H](O)C[C@@]2(C)[C@H]1CC[C@]2(O)C(=O)CO` [PREDNISOLONE] as the molecule, how does the Activity [1] read?
A: The Activity was 40.

— ChEMBL document CHEMBL4699515, “Staprexanthones, Xanthone-Type Stimulators of Pancreatic β-Cell Proliferation from a Mangrove Endophytic Fungus” (J Nat Prod, 2020)
